Holding throughout (format): cell-based
One experiment has as its target T1, hCTR N365A (Homo sapiens, UniProt P30988, N365A).
T1 construct: c-Myc (N); expressed in transfected cells
T1 sequence (P30988 25-474 N365A): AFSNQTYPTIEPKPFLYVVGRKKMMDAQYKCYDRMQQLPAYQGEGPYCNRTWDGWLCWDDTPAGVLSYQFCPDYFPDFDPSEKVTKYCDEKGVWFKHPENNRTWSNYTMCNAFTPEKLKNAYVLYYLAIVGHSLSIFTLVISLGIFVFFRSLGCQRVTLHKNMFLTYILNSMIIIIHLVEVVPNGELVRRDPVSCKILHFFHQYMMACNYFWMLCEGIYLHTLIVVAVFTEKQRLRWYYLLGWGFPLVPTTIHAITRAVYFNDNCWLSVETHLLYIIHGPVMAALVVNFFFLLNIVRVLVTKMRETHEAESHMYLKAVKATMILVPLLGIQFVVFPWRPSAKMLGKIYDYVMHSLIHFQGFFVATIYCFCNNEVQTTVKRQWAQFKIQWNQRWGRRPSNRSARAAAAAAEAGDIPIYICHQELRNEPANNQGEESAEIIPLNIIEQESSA
Description: cAMP accumulation. The settings on record: cAMP maximal response, mean ± S.E.M., SEM. The method, boiled down: (§1)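 Plated cells were incubated overnight and then challenged with rising ligand concentrations for 30 min alongside IBMX. Medium was replaced by absolute ethanol, which was evaporated at room temperature before cAMP determination. Values are normalized to 100 μM forskolin.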
Background: Changes in cAMP serve as a functional read-out for many G protein-coupled receptors.

The target of the next experiment is T2, hCTR R281A (Homo sapiens, UniProt P30988, R281A).
T2 construct: expressed in transfected cells
T2 sequence (P30988 25-474 R281A): T1 sequence (P30988 25-474 N365A) with R257A, A341N
Description: cAMP accumulation. To be noted: cAMP maximal response, mean ± S.E.M., SEM. The method, boiled down: as §1

The target of another experiment is T3, hCTR C289A (Homo sapiens, UniProt P30988, C289A).
T3 construct: c-Myc (N); expressed in transfected cells
T3 sequence (P30988 25-474 C289A): T1 sequence (P30988 25-474 N365A) with C265A, A341N
The experiment in a line: ERK1/2 phosphorylation. The settings on record: pERK maximal response, CV1-FlpIn cells, mean ± S.E.M. Here is the method:
(§2) Cells (2.5 × 10^4 cells/well) were seeded into 96-well culture plates and incubated overnight. […] Data were normalized to the maximal response elicited by 10% FBS determined at 6 min.
(§3) Data were corrected for radioligand occupancy using the Cheng-Prusoff equation in Prism; as such data are reported as pKi. Emax and EC50 were estimated from concentration-response curves using with a 3-parameter logistic equation in Prism (v7). These values are a composite of functional affinity, efficacy and stimulus response coupling. […] Significance was accepted at P < 0.05.

The target of a further experiment is T4, hCTR P363A (Homo sapiens, UniProt P30988, P363A).
T4 construct: expressed in transfected cells
T4 sequence (P30988 25-474 P363A): T1 sequence (P30988 25-474 N365A) with P339A, A341N
Description: ERK1/2 phosphorylation. The settings on record: pERK maximal response, CV1-FlpIn cells, mean ± S.E.M. The method, then:
as §2, §3

Another experiment has as its target T5, hCTR W361A (Homo sapiens, UniProt P30988, W361A).
T5 construct: expressed in transfected cells
T5 sequence (P30988 25-474 W361A): T1 sequence (P30988 25-474 N365A) with W337A, A341N
The experiment in a line: ERK1/2 phosphorylation. The settings on record: read-out: Emax (% WT). Here is the method:
as §2, §3

Numbering of substitutions follows the chain as printed.

For orientation: Emax means the greatest response seen or fitted, relative to the assay's reference.

For `CC[C@H](C)[C@H](NC(=O)[C@H](C)NC(=O)[C@@H](NC(=O)[C@H](CCC(N)=O)NC(=O)[C@@H]1CCCN1C(=O)[C@H](Cc1ccccc1)NC(=O)[C@@H](NC(=O)[C@H](Cc1c[nH]cn1)NC(=O)[C@H](Cc1ccccc1)NC(=O)[C@H](CCCCN)NC(=O)[C@H](CC(N)=O)NC(=O)[C@H](Cc1ccccc1)NC(=O)[C@H](CC(=O)O)NC(=O)[C@H](CCC(N)=O)NC(=O)[C@@H](NC(=O)[C@H](Cc1ccc(O)cc1)NC(=O)[C@@H](NC(=O)CNC(=O)[C@H](CC(C)C)NC(=O)[C@H](CCSC)NC(=O)[C@@H]1CSSC[C@H](N)C(=O)NCC(=O)N[C@@H](CC(N)=O)C(=O)N[C@@H](CC(C)C)C(=O)N[C@@H](CO)C(=O)N[C@@H]([C@@H](C)O)C(=O)N1)[C@@H](C)O)[C@@H](C)O)[C@@H](C)O)[C@@H](C)O)C(=O)NCC(=O)N[C@H](C(=O)NCC(=O)N[C@@H](C)C(=O)N1CCC[C@H]1C(N)=O)C(C)C` [hCT], the Emax at hCTR N365A worked out at 96 ± 4%; on hCTR R281A, 117 ± 15%; at hCTR C289A it was 40 ± 8%; at hCTR P363A it was 64 ± 6%; on hCTR W361A, 112 ± 6%.

The values are drawn from PMC5908784, “Extracellular loops 2 and 3 of the calcitonin receptor selectively modify agonist binding and efficacy” (Biochemical Pharmacology, 2018).
